Laboratory results: patent publication US9744178B2, “Respirable agglomerates of porous carrier particles and micronized drug” (Novartis AG, priority 2013, dated 2017)

Key:
[1] = Particle size (x50, x90) of micronized drug crystals; assay type: physicochemical; conditions: micronized drug crystals used in the respirable agglomerates
Method: “Mass median diameter” or “MMD” or “×50” as used herein means the median diameter of a plurality of particles, typically in a polydisperse particle population, i.e., consisting of a range of particle sizes. MMD values as reported herein are determined by laser diffraction (Sympatec Helos, Clausthal-Zellerfeld, Germany), unless the context indicates otherwise.
An MMD or an ×50 (particle size distribution wherein 50% of the particles are sized smaller) of the micronized active ingredients should be less than about 3 micron (μm), preferably less than about 2 μm, or 1 μm. In embodiments of the invention, an ×50 is about 0.1-3 μm. An ×90 (particle size distribution wherein 90% of the particles are sized smaller) should be less than 7 μm, preferably less than 5 μm, or 3 μm.

[2] = Delivered dose uniformity from Concept1 dry powder inhaler; assay type: physicochemical; conditions: each drug in respirable agglomerates Lot 11015A-7-6, size 3 hypromellose capsules, Concept1, 60 L/min, 2 L, on filter, RP-HPLC
Method: “Emitted Dose” or “ED” as used herein refers to an indication of the delivery of dry powder from an inhaler device after an actuation or dispersion event from a powder unit. ED is defined as the ratio of the dose delivered by an inhaler device to the nominal or metered dose. The ED is an experimentally determined parameter, and may be determined using an in vitro device set up which mimics patient dosing. It is sometimes also referred to as the Delivered Dose (DD). The ED is determined using a drug specific method such as high pressure liquid chromatography.
The bulk powder was filled into size 3 hypromellose capsules. The capsules were then individually filled into a Concept1 dry powder Inhaler (as described herein). The Concept1 Inhaler is a low resistance, capsule-based dry powder Inhaler. The device was emptied at a flow rate of 60 L/min and an inhaled volume of 2 L onto a filter. The mass of each Individual drug on the filter was quantitated by RP-HPLC. The total mass of powder on the filter was also determined gravimetrically.

[3] = Physical form of indacaterol acetate by X-ray powder diffraction; assay type: physicochemical; conditions: for Physical stability of the salt form in water: suspended in water / aqueous feedstock to be spray-dried, acetate
Method: In the process of the present invention, an ordered mixture of micronized indacaterol acetate crystals and small porous particles are created by suspending the particles in a liquid perfluorocarbon, and then removing the liquid in a drying process. The physical form of the indacaterol acetate drug substance can be determined by X-ray powder diffraction (XRPD).
The pattern is dominated by the characteristic phospholipid peak at 20=21°. […] Peaks characteristic of indacaterol free base are not present.

β2-adrenoceptor = β2-adrenoceptor (Homo sapiens, UniProt P07550); conditions: cited from earlier work
Sequence of β2-adrenoceptor (P07550 whole entry, species assumed): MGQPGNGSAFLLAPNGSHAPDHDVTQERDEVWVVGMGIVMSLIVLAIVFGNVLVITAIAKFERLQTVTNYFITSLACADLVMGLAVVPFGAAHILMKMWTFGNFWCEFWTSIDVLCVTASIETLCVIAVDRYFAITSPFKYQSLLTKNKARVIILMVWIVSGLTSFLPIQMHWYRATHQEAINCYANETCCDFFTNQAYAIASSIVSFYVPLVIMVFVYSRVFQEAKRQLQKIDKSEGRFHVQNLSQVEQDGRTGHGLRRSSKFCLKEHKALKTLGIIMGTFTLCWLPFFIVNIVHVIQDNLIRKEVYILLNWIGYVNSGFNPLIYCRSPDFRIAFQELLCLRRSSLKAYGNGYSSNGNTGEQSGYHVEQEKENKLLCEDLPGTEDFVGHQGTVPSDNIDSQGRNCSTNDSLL

×50 [1]	×90 [1]	Mean delivered dose (% nominal) [2]	Physical form after dispersion in PFOB ([3]; suspended in perfluorooctyl bromide, XRPD)	SMILES	Physical stability of the salt form in water [3]	Physical stability of the salt form in water ([3]; listed as Indacaterol acetate)	Duration of action (β2-adrenoceptor)	Onset of action (β2-adrenoceptor)
1.63 μm	3.08 μm	83.5 % nominal	salt form of the drug is maintained	CC(=O)O.CCc1cc2c(cc1CC)CC(NC[C@H](O)c1ccc(O)c3[nH]c(=O)ccc13)C2 [indacaterol acetate, (R)-5-[2-(5,6-diethyl-indan-2-ylamino)-1-hydroxyethyl]-8-hydroxy-1H-quinolin-2-one acetate]	rapidly disproportionates to form indacaterol free base and acetic acid	rapidly disproportionating to form indacaterol free base and acetic acid		
				CCc1cc2c(cc1CC)CC(NC[C@H](O)c1ccc(O)c3[nH]c(=O)ccc13)C2 [indacaterol, (R)-5-[2-(5,6-diethyl-indan-2-ylamino)-1-hydroxyethyl]-8-hydroxy-1H-quinolin-2-one]			over 24 hours	about 10 minutes
1.22 μm	2.45 μm	84.8 % nominal		C[C@@H]1C[C@H]2[C@@H]3CCC4=CC(=O)C=C[C@]4(C)[C@@]3(Cl)[C@@H](O)C[C@]2(C)[C@@]1(OC(=O)c1ccco1)C(=O)CCl [mometasone furoate, (11β,16α)-9,21-dichloro-17-[(2-furanylcarbonyl)oxy]-11-hydroxy-16-methylpregna-1,4-diene-3,20-dione]				

SMILES	×50 [1]	×90 [1]	Mean delivered dose (% nominal) [2]	Physical form after dispersion in PFOB ([3]; suspended in perfluorooctyl bromide, XRPD)	Physical stability of the salt form in water [3]	Physical stability of the salt form in water ([3]; listed as Indacaterol acetate)	Duration of action (β2-adrenoceptor)	Onset of action (β2-adrenoceptor)
C[N+]1(C)CCC(OC(=O)C(O)(c2ccccc2)C2CCCC2)C1.[Br-] (centres unmarked) [Glycopyrronium bromide, 3-[(cyclopentyl-hydroxyphenyl-acetyl)oxy]-1,1-dimethylpyrrolidinium bromide]	2.96 μm	6.52 μm	82.1 % nominal					
